Measurements: paper PMC9377723 (Clinical Cancer Research, 2021)
“Also recorded” adds a separate entry of the source. Read-outs that look alike come from different tables or passages of the source.

What was measured:
[1] = tested on: HR+/HER2− advanced breast cancer; type: in vivo, patients; details: for Median PFS: updated analysis
plasma estradiol = assay: Plasma estradiol concentration, baseline vs cycle 3 day 15; type: in vivo, patients
[2] = tested on: patients with HR+/HER2− advanced breast cancer; assay: MONALEESA-7 adverse events; type: in vivo; details: adverse event of special interest
[3] = Steady-state plasma pharmacokinetics; type: in vivo, patients
[4] = tested on: HR+/HER2− advanced breast cancer; details: cited from earlier work
[5] = patients less than 40 years of age

## CN(C)C(=O)c1cc2cnc(Nc3ccc(N4CCNCC4)cn3)nc2n1C1CCCC1 [Ribociclib, ribociclib]
[1]; Age: <40 years
  mOS (median overall survival): 51.3 months
[1]; Age: ≥40 years
  mOS (median overall survival): 58.8 months
[1]; All patients
  Increase in survival over the MONALEESA-7 placebo arm: 22%
  Kaplan–Meier estimated OS at 48 months (survival rate at 4 years): 60%
  Median chemotherapy-free survival (CFS): 42.4 months
  PFS2 HR (95% CI) vs placebo: 0.68
  PFS2 Median: 44.2 mo
  Patients who had died at data cut-off: 42%
  Patients who received chemotherapy as a subsequent therapy at any time: 43%
  Patients with disease progression on subsequent therapy or death (PFS2 events): 53%
  Patients with receipt of chemotherapy or death: 57%
  Survival rate at 54 months: 53%
[1]; All patients, 58.7 vs 48.0 months
  Improvement in OS over ET alone: 10.7 months
[1]; All patients, median follow-up 53.5 months
  mOS (median overall survival): 58.7 months
[1]; Chemotherapy (metastatic): Yes
  mOS (median overall survival): 47.2 months
[1]; Disease-free interval: De novo
  mOS (median overall survival): not reached
[1]; Endocrine combination partner: NSAI and goserelin
  mOS (median overall survival): 58.7 months
[1]; Endocrine combination partner: Tamoxifen and goserelin
  mOS (median overall survival): not estimable
[1]; Patients receiving an NSAI
  Patients who died: 43%
[1]; Patients receiving tamoxifen
  Patients who died: 39%
[1]; difference in median chemotherapy-free survival
  Delay in chemotherapy vs placebo, without censoring: 16.0 month
[1]; difference in median time to first chemotherapy
  Delay in chemotherapy vs placebo, censoring for death: 14.1 month
[1]; in vivo
  Median time to first chemotherapy (TTC): 50.9 months
[1]; overall
  Duration of first subsequent antineoplastic therapy after discontinuation of study treatment: 7.5 months
[1]; [5]
  Reduction in the risk of death: 35%
  Median PFS: 29.7 months
[1]; patients ≥40 years of age
  Median PFS: 26.4 months
Plasma estradiol; 86 of 90 patients
  Patients with estradiol below the minimum detectable limit (0.5 pg/mL): 96%
Plasma estradiol; patients who received an NSAI
  Mean percentage decrease in plasma estradiol concentration compared with baseline: 89%
[2]
  Hepatobiliary toxicity, grade 3 or 4: 12%
  Neutropenia, grade 3 or 4: 65%
  Prolonged QT interval, grade 3 or 4: 2%
[3]; in vivo
  Drug–drug interaction between ribociclib and NSAI partner: No drug–drug interactions; also recorded: no apparent drug–drug interaction
[4]; median follow-up 34.6 months
  Median OS, prespecified second interim (final) analysis: not reached
[4]; primary analysis
  Median PFS (primary endpoint): 23.8 months

## CC/C(=C(\c1ccccc1)c1ccc(OCCN(C)C)cc1)c1ccccc1 [Tamoxifen, tamoxifen]
[3]; tamoxifen 20 mg
  Exposure with ribociclib versus placebo: approximately 2 times
